Results reported in ChEMBL document CHEMBL1201862, “PubChem BioAssay data set” (2004).
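All cell lines were grown in 96-well plates and treated with compound for 48 hours. The concentration for 50% growth inhibition is given as GI50.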 Calls of active or inactive are those of the source. Cut-off read from the data, not from the text of the source: active = GI50 up to about 1.1 µM and inactive = higher.

Assays:
Test in all cases: growth of human tumour cells (NCI), 48 h
[1] = tested on: BT-549
[2] = tested on: SK-MEL-2
[3] = tested on: SNB-75
[4] = tested on: T47D
[5] = tested on: M14
[6] = tested on: DU-145
[7] = tested on: Hs-578T
[8] = tested on: RPMI-8226
[9] = tested on: RXF 393
[10] = tested on: Malme-3M
[11] = tested on: UACC-62
[12] = tested on: LOX IMVI
[13] = tested on: NCI-H23
[14] = tested on: NCI-H226
[15] = tested on: HCT-116
[16] = tested on: HOP-62

| Compound | GI50 [1] | GI50 [2] | GI50 [3] | GI50 [4] | GI50 [5] | GI50 [6] | GI50 [7] | GI50 [8] | GI50 [9] | GI50 [10] | GI50 [11] | GI50 [12] | GI50 [13] | GI50 [14] | GI50 [15] | GI50 [16] |
| --- | --- | --- | --- | --- | --- | --- | --- | --- | --- | --- | --- | --- | --- | --- | --- | --- |
| Cc1c(N2CCCC2)cc2c(c1NC(=O)c1ccccc1Cl)C(C)(C)CC2(C)C | 17.8 µM (inactive) | 16.3 µM (inactive) | 15.5 µM (inactive) | 11.5 µM (inactive) | 13.5 µM (inactive) | 15.9 µM (inactive) | 16.7 µM (inactive) | 12.9 µM (inactive) | 14.3 µM (inactive) | 17.7 µM (inactive) | 10.8 µM (inactive) | 13.4 µM (inactive) | 14.7 µM (inactive) | 23.2 µM (inactive) | 10.6 µM (inactive) | 14.2 µM (inactive) |
| Nc1ccc2[nH]cc(CCC(=O)O)c2c1 | > 100 µM (inactive) | > 100 µM (inactive) | 46.1 µM (inactive) | > 100 µM (inactive) | > 100 µM (inactive) | > 100 µM (inactive) | > 100 µM (inactive) | > 100 µM (inactive) | > 100 µM (inactive) | 28.8 µM (inactive) | > 100 µM (inactive) | > 100 µM (inactive) | > 100 µM (inactive) | > 100 µM (inactive) | > 100 µM (inactive) | > 100 µM (inactive) |
| Cc1cc(Cl)ccc1OCC(=O)Nc1nc(N)nc(N)n1 | > 100 µM (inactive) | > 100 µM (inactive) | > 100 µM (inactive) | > 100 µM (inactive) | > 100 µM (inactive) | > 100 µM (inactive) | > 100 µM (inactive) | > 100 µM (inactive) | > 100 µM (inactive) | > 100 µM (inactive) | > 100 µM (inactive) | > 100 µM (inactive) | > 100 µM (inactive) | > 100 µM (inactive) | > 100 µM (inactive) | > 100 µM (inactive) |
| COc1cccc2c1C(=O)c1ccc3cc(CO)cc(O)c3c1C2=O | 1.58 µM (inactive) | 0.798 µM (active) | 4.29 µM (inactive) | 1.72 µM (inactive) | 0.245 µM (active) | 0.733 µM (active) | 3.7 µM (inactive) | 0.74 µM (active) | 1.34 µM (inactive) | 0.046 µM (active) | 0.279 µM (active) | 1.8 µM (inactive) | 0.288 µM (active) | 0.908 µM (active) | 0.252 µM (active) | 2.09 µM (inactive) |
| CC1OC(OC2C(OC(=O)[C@]34CCC(C)(C)C[C@H]3C3=CC[C@@H]5[C@@]6(C)CC[C@H](OC7OC(C(=O)O)C(O)C(O)C7O)C(C)(C)[C@@H]6CC[C@@]5(C)[C@]3(C)C[C@H]4O)OCC(O)C2O)C(O)C(OC2OCC(O)(CO)C2O)C1OC1OCC(O)C(O)C1O (some centres not stated) | 5.42 µM (inactive) | 6.7 µM (inactive) | 17.7 µM (inactive) | 8.47 µM (inactive) | 10.8 µM (inactive) | 12.9 µM (inactive) | 20.3 µM (inactive) | 7.23 µM (inactive) | 15.2 µM (inactive) | 11.6 µM (inactive) | 16 µM (inactive) | 13.7 µM (inactive) | 2.59 µM (inactive) | 10.9 µM (inactive) | 7.19 µM (inactive) | 16.1 µM (inactive) |
| O=P(O)(O)CN1CCNCCN(CP(=O)(O)O)CC1 | > 100 µM (inactive) | 46 µM (inactive) | > 54.5 µM (inactive) | > 68.4 µM (inactive) | 37.9 µM (inactive) | > 100 µM (inactive) | > 100 µM (inactive) | 20.4 µM (inactive) | 28.8 µM (inactive) | > 37.3 µM (inactive) | 38.8 µM (inactive) | 25.9 µM (inactive) | 54.6 µM (inactive) | > 38.5 µM (inactive) | 8.93 µM (inactive) | > 100 µM (inactive) |
| c1ccc2c(c1)nc1n2C2CCC(C2)N1 (configuration not stated) | > 10 µM (inactive) | > 10 µM (inactive) | 1.87 µM (inactive) | > 10 µM (inactive) | > 10 µM (inactive) | > 10 µM (inactive) | > 10 µM (inactive) | > 10 µM (inactive) | > 10 µM (inactive) | > 10 µM (inactive) | > 10 µM (inactive) | > 10 µM (inactive) | > 10 µM (inactive) | > 10 µM (inactive) | > 10 µM (inactive) | > 10 µM (inactive) |
| CCOC(=O)C1CCC/C1=N\NC(=N)N.Cc1cc(O)c(C(C)C)cc1S(=O)(=O)O (configuration not stated) | > 100 µM (inactive) | > 100 µM (inactive) | 36.2 µM (inactive) | > 100 µM (inactive) | > 100 µM (inactive) | > 100 µM (inactive) | > 100 µM (inactive) | > 100 µM (inactive) | > 100 µM (inactive) | > 100 µM (inactive) | > 100 µM (inactive) | > 100 µM (inactive) | > 100 µM (inactive) | > 100 µM (inactive) | > 100 µM (inactive) | > 100 µM (inactive) |
| CCOC(=O)C(C(=O)OCC)C1C=CCC2c3ccccc3COCC21 (configuration not stated) | 49 µM (inactive) | 41.4 µM (inactive) | 96.6 µM (inactive) | 30.2 µM (inactive) | 49.9 µM (inactive) | > 100 µM (inactive) | 73.8 µM (inactive) | 41.5 µM (inactive) | > 100 µM (inactive) | 31.7 µM (inactive) | 26.1 µM (inactive) | 44.2 µM (inactive) | 43.6 µM (inactive) | 73.8 µM (inactive) | 41.1 µM (inactive) | > 100 µM (inactive) |
| c1cc(-c2cnc(-c3ccc4c(c3)CCCO4)o2)ccn1 | 15.2 µM (inactive) | 11.9 µM (inactive) | 12.2 µM (inactive) | 16.6 µM (inactive) | 18.6 µM (inactive) | 11.3 µM (inactive) | 17.1 µM (inactive) | 6.24 µM (inactive) | 13.5 µM (inactive) | 16.7 µM (inactive) | 17.1 µM (inactive) | 13.6 µM (inactive) | 15.5 µM (inactive) | 15.3 µM (inactive) | 16.7 µM (inactive) | 16.5 µM (inactive) |
| COC(=O)C1=C(C(=O)OC)N(c2ccc(OC)cc2[N+](=O)[O-])C(c2ccc(C)cc2)=CC1c1ccc(OC)cc1OC (configuration not stated) | 11.3 µM (inactive) | 29.6 µM (inactive) | 18.7 µM (inactive) | 11.1 µM (inactive) | 17.2 µM (inactive) | 25.2 µM (inactive) | 31.7 µM (inactive) | 2.07 µM (inactive) | 5.25 µM (inactive) | 22.2 µM (inactive) | 25.2 µM (inactive) | 2.36 µM (inactive) | 22.4 µM (inactive) | 18.3 µM (inactive) | 10.7 µM (inactive) | 26.4 µM (inactive) |
| O=C(O)CC(C(=O)O)c1ccccc1[N+](=O)[O-] (configuration not stated) | > 100 µM (inactive) | > 100 µM (inactive) | > 100 µM (inactive) | > 100 µM (inactive) | > 100 µM (inactive) | > 100 µM (inactive) | 25.6 µM (inactive) | > 100 µM (inactive) | > 100 µM (inactive) | > 100 µM (inactive) | > 100 µM (inactive) | > 100 µM (inactive) | > 100 µM (inactive) | > 100 µM (inactive) | > 100 µM (inactive) | > 100 µM (inactive) |
| CCSc1nnc(Sc2c3ccccc3nc3ccccc23)s1 | 17.6 µM (inactive) | 22.3 µM (inactive) | 35.3 µM (inactive) | 4.22 µM (inactive) | 11.5 µM (inactive) | 15.2 µM (inactive) | 32.7 µM (inactive) | 3.91 µM (inactive) | 17.2 µM (inactive) | 7.01 µM (inactive) | 15 µM (inactive) | 6.7 µM (inactive) | 20.2 µM (inactive) | 33.7 µM (inactive) | 7.41 µM (inactive) | > 58.6 µM (inactive) |
| c1ccc2nc(CCC3CCCCN3)ccc2c1 (configuration not stated) | 61.7 µM (inactive) | > 100 µM (inactive) | 92.3 µM (inactive) | 54.5 µM (inactive) | > 100 µM (inactive) | > 100 µM (inactive) | > 100 µM (inactive) | 39.9 µM (inactive) | > 100 µM (inactive) | 91.4 µM (inactive) | > 100 µM (inactive) | > 100 µM (inactive) | 72.9 µM (inactive) | > 100 µM (inactive) | > 100 µM (inactive) | 85.5 µM (inactive) |
| COc1cc(OC)cc(C(=O)NC2=C(Cl)C(=O)c3ccccc3C2=O)c1 | 2.27 µM (inactive) | 1.65 µM (inactive) | 2.67 µM (inactive) | 1.46 µM (inactive) | 1.07 µM (active) | 4.58 µM (inactive) | 3.3 µM (inactive) | 0.706 µM (active) | 1.04 µM (active) | 1.74 µM (inactive) | 0.361 µM (active) | 1.99 µM (inactive) | 2.43 µM (inactive) | 3.3 µM (inactive) | 0.668 µM (active) | 12.8 µM (inactive) |
| CCOC(=O)c1c(C)[nH]c2c1c(CN(C)C)c(O)c1nc(C)c(C)nc12 | 26.2 µM (inactive) | 20.4 µM (inactive) | 23.3 µM (inactive) | 27 µM (inactive) | 36.1 µM (inactive) | 26.2 µM (inactive) | 22.8 µM (inactive) | 18.5 µM (inactive) | 20.8 µM (inactive) | 18.5 µM (inactive) | 15.6 µM (inactive) | 19.4 µM (inactive) | 27.8 µM (inactive) | 22.2 µM (inactive) | 17.2 µM (inactive) | 20 µM (inactive) |
| CC(=O)Nc1ccc2c3c(cc(O)c2c1)N(C(=O)CCCCCCC(=O)N1CC(CCl)c2c1cc(O)c1cc(NC(C)=O)ccc21)CC3CCl (configuration not stated) | < 0.01 µM (active) | < 0.01 µM (active) | < 0.01 µM (active) | < 0.01 µM (active) | < 0.01 µM (active) | < 0.01 µM (active) | 0.0306 µM (active) | 0.059 µM (active) | < 0.01 µM (active) | < 0.01 µM (active) | < 0.01 µM (active) | < 0.01 µM (active) | < 0.01 µM (active) | < 0.01 µM (active) | < 0.01 µM (active) | < 0.0116 µM (active) |
